We go through 1 substance from patent EP2204099A1, “Methods for producing pure amino acid chelate complexes, and uses thereof” (Viva Pharmaceuticals Inc., priority 2008, dated 2010).

Assay [1] relates to CTX-induced immunodeficient mice. As to the kind of experiment: Clearance of charcoal particles (carbon clearance test) in CTX-induced immunodeficient mice. Type of assay: in vivo. The conditions noted are these: 17 mg/kg per os; CTX 50 mg/kg i.p.; x±sd, n=10. The procedure: A total of 70 mice were divided into 7 treatment groups: Vehicle; CTX (cyclophosphamide) + Vehicle; CTX+ZnSO4 (17mg mg/kg); CTX+Zinc chelate (Zn:2Asp:2Lys) (57 mg/kg); CTX+Zinc chelate (Zn:2Asp:2Lys) (114 mg/kg); CTX+Zinc chelate (Zn:2Asp:2Lys) (228 mg/kg); and CTX+Zinc chelate (Zn:2Asp:2Lys) (456 mg/kg). The mice were administrated per os at least 16 days before experimentation. CTX was given as an intraperitoneal injection at the dose of 50 mg/kg every day for 4 days after 9 days of drug administration.
Sixty minutes after the last drug administration, mice were injected with 1:3 diluted Indian ink 10 ml/kg. At 1 min (T1) and 11 min (T2), bold 40µl was taken from retroocular venous plexus and resolved in 0.1 % Na2CO3 solution 4 ml. The absorbance (OD) was measured at 600 nm by a 721 spectrophotometer. The clearance rate K and clearance index a were calculated: K = (lgOD1-lgOD2)/T2 -T1 [formula] α = K^(1/3) × W/(liver weight+spleen weight) [formula] (W: weight of mouse)

Assay [2] shares this test system. Description: Serum hemolysin test in CTX-induced immunodeficient mice. The following applies: 17 mg/kg per os; SRBC-immunized; CTX 50 mg/kg i.p.; x±sd, n=10. It counts as in vivo. As for the experimental part: A total of 70 mice were divided into […] treatment groups: Vehicle; CTX (cyclophosphamide) + Vehicle; CTX+Zinc Sulphate (17mg mg/kg); CTX+Zinc chelate (Zn:[…]:[…]) (57 mg/kg); CTX+Zinc chelate (Zn:[…]:[…]) (114 mg/kg); CTX+Zinc chelate (Zn:[…]:[…]) (228 mg/kg); CTX+Zinc chelate (Zn:[…]:[…]) (456 mg/kg). The mice were administrated per os at least 16 days before experimentation. After 8 days of drug or vehicle administration, all mice were immunized with an intraperitioneal injection of 0.2 ml of 20% SRBC (sheep red blood cell) in saline. CTX was given intraperitoneal injection at the dose of 50 mg/kg every day for 4 days after 9 days of drug administration. Sixty minutes after the last drug administration, blood was collected by retroorbital venous plexus puncture, and then centrifuged (2000 r/min 5 min). Sheep red cell suspension 0.5 ml (5% sheep red cell in saline) was added to 1 ml diluted sera (1:500 dilution with saline), followed by 1 ml diluted guinea pig plasma (10% plasma in saline) in sequence. For negative controls, the durg waqs substituted with saline. The samples and controls were incubated for 10 min at 37°C, and then immersed in an ice-water bath (0°C) to stop the reaction. […] The absorbance for each tube was recorded and the 50% hemolytic dose (HC50) was calculated as follows: Sample HC50 = sample absorbance 50% hemolytic absorbance x dilution factors.

As to Zinc Sulphate, the “α (clearance index)” value in assay [1] was determined as 4.2988±1.4347. Besides, in assay [2], the “HC50 (serum hemolysin)” value came out at 141.7±29.5.
